Data as given in patent US4022834A, “Antibacterially active hexamethylene-bis-biguanides” (priority 1972, dated 1977).
Structures can show the parent of a compound that is named as a salt. Where two headings read alike, the source gives them in different places.

Assays:
[1] = Acute peroral toxicity in mice; conditions: mouse, in vivo, po
plaque [2] = assay: Plaque-index on test persons after mouth rinsing; format: in vivo; conditions: rinsing with 10 ml of 1,1 mM solution 3 times daily for 3 days; scale 0 (no plaque) to 3 (clearly visible plaque marginally)
Description: Plaque-index on test persons after rinsing with 10 ml of 1,1 mM solution 3 times daily for 3 days. The rinsing was during this time the only type of oral hygiene used.
Plaque-index, which is a recognized measure of plaque-inhibiting property, runs from 0 (no plaque) to 3 (clearly visible plaque marginally).

Aerobacter aerogenes = assay: Inhibition of growth in aqueous solution and subcultivation in liquid medium, Aerobacter aerogenes; format: cell-based; conditions: Reference: Chlorohexidine=1
From the text: (§1) Inhibition of growth in aqueous solution and subcultivation in liquid medium. Reference: Chlorohexidine=1.

Staph. aureus = assay: Inhibition of growth in aqueous solution and subcultivation in liquid medium, Staph. aureus; format: cell-based; conditions: Reference: Chlorohexidine=1
From the text: as §1

human epithelial cells = assay: Cytotoxic effect on human epithelial cells in vitro; format: cell-based
Description: Cytotoxic effect on human epithelial cells in vitro after treatment for 5 minutes at 37° C. Reference: Chlorohexidine=1.

bacteria = conditions: cited from earlier work
plaque [3] = conditions: rinsing of the mouth; cited from earlier work
plaque [4] = assay: Plaque-index on test persons after mouth rinsing; format: in vivo; conditions: rinsing with 1,6 mM chlorohexidine under the same conditions; scale 0 to 3
[5] = treatment for 5 minutes at 37° C., Reference: Chlorohexidine=1

Compound | LD50 [1] | Plaque index (plaque [2]) | Inhibition of growth relative to chlorohexidine (Aerobacter aerogenes) | Inhibition of growth relative to chlorohexidine (Staph. aureus) | Cytotoxic effect relative to chlorohexidine (human epithelial cells) | Cytotoxic effect relative to chlorohexidine (human epithelial cells; [5]) | Antibacterial activity (in words) (bacteria) | Toxicity compared with chlorohexidine (in words) (human epithelial cells; human epithelial cells in vitro) | Effect against gingivitis and caries (in words) (plaque [3]) | Inhibition of plaque formation (in words) (plaque [3]) | Plaque index (plaque [4])
[H]/N=C(\N/C(=N/[H])NCCCCCCNC(=N)NC(=N)Nc1ccc(Cl)cc1)Nc1ccc(Cl)cc1 [Chlorohexidine-digluconate, reference compound] | 1800 mg/kg |  |  |  |  |  |  |  |  |  | 
CC(C)CCCC(C)NC(=N)NC(=N)NCCCCCCNC(=N)NC(=N)NC(C)CCCC(C)C (stereo not shown) [Compound 1, 1,1'-hexamethylene-bis-[5-(1,5-dimethylhexyl)biguanide]dihydrochloride] | 1690 mg/kg | 0,36 | 16 | 4 |  |  |  |  |  |  | 
N=C(NCCCCCCNC(=N)NC(=N)N1CC2CCC(CC2)C1)NC(=N)N1CC2CCC(CC2)C1 [Compound 2] |  | 0,58 | 1 | 1 | 1/8 |  |  |  |  |  | 
N=C(NCCCCCCNC(=N)NC(=N)NCC1CCCCC1)NC(=N)NCC1CCCCC1 [Compound 3] |  | 0,19 | 8 | 2 |  | 1/2 |  |  |  |  | 
N=C(NCCCCCCNC(=N)NC(=N)NC12CC3CC(CC(C3)C1)C2)NC(=N)NC12CC3CC(CC(C3)C1)C2 [Compound 4, 1,1'-hexamethylene-bis-[5-(1-adamantyl)biguanide]dihydrochloride] | 2830 mg/kg | 0,36 | 8 | 16 |  |  |  |  |  |  | 
N=C(NCCCCCCNC(=N)NC(=N)NC1CC2CCC1C2)NC(=N)NC1CC2CCC1C2 (stereo not shown) [Compound 5, 1,1'-hexamethylene-bis-[5-(2-endonorbornyl]biguanide)-dihydrochloride] |  | 0,50 | 1/8 | 1/2 |  | 1/8 |  |  |  |  | 
CCCCCC(C)NC(=N)NC(=N)NCCCCCCNC(=N)NC(=N)NC(C)CCCCC.Cl.Cl (stereo not shown) [Compound 6, 1,1'-hexamethylene-bis-[5-(1-methylhexyl)biguanide]-dihydrochloride] |  | 0,27 | 1 | 4 |  | 1 |  |  |  |  | 
CCC(C)CC(C)NC(=N)NC(=N)NCCCCCCNC(=N)NC(=N)NC(C)CC(C)CC (stereo not shown) [Compound 7, 1,1'-hexamethylene-bis-[5-(1,3-dimethylpenthyl)-biguanide]-dihydrochloride] |  | 0,29 | 1 | 8 |  | 1 |  |  |  |  | 
CC(C)CCC(C)NC(=N)NC(=N)NCCCCCCNC(=N)NC(=N)NC(C)CCC(C)C.Cl.Cl (stereo not shown) [Compound 8, 1,1'-hexamethylene-bis-[5-(1,4-dimethylpentyl)biguanide]-dihydrochloride] |  | 0,70 | 1 | 8 |  | 1 |  |  |  |  | 
CCCCC(CC)CNC(=N)NC(=N)NCCCCCCNC(=N)NC(=N)NCC(CC)CCCC (stereo not shown) [Compound 9, 1,1'-hexamethylene-bis-[5-(2-ethylhexyl)biguanide], reference compound] |  | 0,52 | 2 | 8 |  | 4 | known for having antibacterial activity | much more toxic |  |  | 
N=C(NCCCCCCNC(=N)NC(=N)Nc1ccc(Cl)cc1)NC(=N)Nc1ccc(Cl)cc1 [chlorohexidine, 1,1'-hexamethylene-bis-[5-(4-chlorophenyl)biguanide]] |  |  |  |  |  |  | antibacterial effect |  | prophylactic effect against gingivitis and caries | marked inhibiting effect on the formation of plaque | 0,75
